From patent US7781594B2, “5-(4-methanesulfonyl-phenyl)-thiazole derivatives for the treatment of acute and chronic inflammatory diseases” (Faes Farma, S.A., priority 2008, dated 2010) come the findings set out here.

Each structure is given as a SMILES string.

Common to all, as to assay type: cell-based, human
For one test, the system named is IFN-gamma. Kind of test: IFN-gamma production by PBMC from patients with rheumatoid arthritis, CBA. As to the method:
(§1) CBA protocol was followed according to the manufacturer's instructions. The election of microparticles was performed following the summary of FIG. 1.
(§2) The acquisition on samples was performed with the BD FACS Array Bioanalyser System (FACSArray, Becton Dickinson, San José, Calif., USA) and the analysis of the results was completed with the software FCAP Array (Becton Dickinson) in a PC computer.
Briefly, the experimental protocol consisted of a plate pre-washing out with Wash Buffer. After decantation, the mixture of capture microparticles was re-suspended in the vortex. Standards and samples were added in the adequate dilution. After permanent stirring incubation during 1 h, the PE detection reagent was added and incubated again during 2 h at room temperature. […]
PBMC (5×10^4 cells/well) from 7 patients with rheumatoid arthritis were cultured in duplicate 200 μl of complete medium supplement with the highest solvent concentration (10^−6 M), and 10^−6 M, 10^−7 M and 10^−8 M of compound 12, in the presence and absence either of LPS (10 μg/ml), or anti-CD3 (12.5 ng/ml)+anti-CD28 (⅓×10^5), during 24 hours. Culture supernatants were frozen at −20° C. and IFN-gamma concentration was assessed by BD FACS Array Bioanalyser by using CBA Flex Set, specific to determine IFN-gamma concentration, following the manufacturer instructions.

The subject of the next test is TNF-alpha. Put plainly: TNF-alpha production by PBMC of healthy volunteers, ELISA. As to the method: In order to quantify the serum cytokines concentration, the extracted blood was stored in tubes both with and without anti-coagulant (collected by antecubital venopunction and arterial catheter, respectively). Blood was allowed to coagulate at room temperature in the laboratory, further separating the serum by centrifugation (600×g during 20 minutes). Supernatant were collected, filtered, divided in aliquotes and stored at −70° C. Concentration assays for different cytokines were performed by using the commercial kits described in Table 2.
Supernatants were unfrozen up to the room temperature and faced against the respective anti-cytokine by fixing them in the plate bottom and incubating them during a variable time. […] The results were assessed with the enzymo-immunoanalysis reader Multititer Plus (Tiertek Multiscan Plus, Flow Laboratories). […]
Effects of compound 12 on TNF-alpha production by PBMC of healthy volunteers in the presence or in the absence of LPS were first investigated. […] Supernatant of cultures were frozen at −20° C. and the concentration of TNF-alpha was quantified with ELISA species-specific (enzyme-linked immunosorbent assay for quantitative detection of tumour necrosis factor-alpha: human TNF-alpha ELISA BM S223/4TEUCE, Bender Med System Inc, Burlinghane Calif. 94010).

The next test deals with IL-8. Put plainly: IL-8 production by PBMC from healthy volunteers, CBA. As to the method:
as §1, §2
Briefly, the experimental protocol consisted of a plate pre-washing out with Wash Buffer. After decantation, the mixture of capture microparticles was re-suspended in the vortex. Standards and samples were added in the adequate dilution. After permanent stirring incubation during 1 h, the PE detection reagent was added and incubated again during 2 h at room temperature. After a washing-out, the acquisition was performed in the flow cytometer.
The effect of compound 12 on the IL-8 production by the PBMC from healthy volunteers was further investigated, both in the presence and absence of LPS stimuli and monoclonal antibodies anti-CD3 and anti-CD28. PBMC (5×10^4 cells/well) from 13 healthy volunteers were cultured in duplicate in 200 μl of complete medium supplemented with the highest solvent concentration (10^−6 M), and 10^−6 M, 10^−7 M and 10^−8 M of compound 12, in the presence and absence of either LPS (10 μg/ml) or anti-CD3 (12.5 ng/ml)+anti-CD28 (⅓×10^5), during 24 hours. Culture supernatants were frozen at −20° C. and IL-8 concentration was quantified by BD FACS Array Bioanalyser by using CBA Flex Set, specific to determine the IL-8 concentration, following the manufacturer instructions.

Regarding `Cc1nc(OC2CCCC2)c(-c2ccc(S(C)(=O)=O)cc2)s1` [Compound 12, 4-cyclopentyloxy-5-(4-methylsulfonyl-phenyl)-2-methyl-thiazole], the “Effect on IFN-gamma production by PBMC stimulated with anti-CD3 and anti-CD28” value in the test with IFN-gamma (patients with rheumatoid arthritis, 10^−6 M, 10^−7 M and 10^−8 M, p<0.05, FIG. 6) is “significantly lowered”. Further, the “Effect on IFN-gamma secretion by PBMC, spontaneous or LPS-induced” value in the test with IFN-gamma (printed 'from healthy volunteers' in the paragraph on patients with rheumatoid arthritis) is “modified neither the spontaneous IFN-gamma secretion nor the LPS-induced”. For the same compound, the “Effect on TNF-alpha concentration in the supernatant of LPS-stimulated PBMC” value in the test with TNF-alpha (10^−6 M and 10^−7 M, LPS, p<0.05 vs vehicle, FIG. 2) is recorded as “diminished in a statistically significant manner”. In addition, in the test on TNF-alpha (10^−6 M, no stimulus), the “Effect on spontaneous TNF-alpha production by PBMC” value was “lowered the spontaneous TNF-alpha production”. Besides, the “Effect on IL-8 production under LPS stimulation of PBMC” value in the test on IL-8 is on record as “no effects were observed”. Also, the “Effect on spontaneous production of IL-8 by PBMC” value in the test with IL-8 (10^−6 M and 10^−7 M, p<0.05, FIG. 7) is “significantly inhibited”. Moreover, the “Effect on IL-8 production induced by anti-CD3 and anti-CD28” value with IL-8 (10^−8 M) is given as “significant inhibition”.
